Data on nine compounds can be found in patent US11339193B2, “CDP protein secretion inhibitors” (KEZAR LIFE SCIENCES, priority 2018, dated 2022).

pEC50, pIC50: −log10 of the molar value. Read-outs that look alike come from different tables or passages of the source. Square brackets hold non-standard residues; d marks the D form. Peptide text beside a SMILES is read from it. NMeTrp(1-(4-Br-benzyl)) = CN[C@@H](Cc1cn(Cc2ccc(Br)cc2)c2ccccc12)C(=O)O; Butanoyl(2R-oxy,4-CN) = N#CCC[C@@H](O)C(=O)O; Abu(4,4,4-F3) = N[C@@H](CC(F)(F)F)C(=O)O; Ala(cPr) = N[C@@H](CC1CC1)C(=O)O; NMeL = CN[C@@H](CC(C)C)C(=O)O; NMeA = CN[C@@H](C)C(=O)O

Holding throughout (assay type): cell-based
Assay [1] concerns Prl-ss+10aa/Gaussia Luciferase. The experiment in a line: Prl-ss-Gluc assay (constitutively active or 24 hr Dox inducible). The procedure, abridged: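 Stable Flp-In 293 T-REx lines express Prl signal sequence+10aa fused to Gaussia luciferase, either constitutively (pcDNA5/FRT) or under the T-REx promoter (pcDNA5/FRT/TO). Cells plated the day before; compounds in DMSO/media (with doxycycline for the inducible line, 24 h) incubated at 37 °C, 5% CO2.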

Assay [2] concerns U266B1 multiple myeloma cell line. The experiment in a line: U266 assay (cell viability, Celltiter-Glo). Conditions: Homo sapiens, U-266; 48 hours, cell viability. The protocol:
Cells were plated in 384-well tissue culture plates and treated with compound dilutions in DMSO/media. Plates were incubated at 37° C., 5% CO2 for 48 hours. After 48 hours, Celltiter-Glo@ (Promega) was added to each well and luciferase signal was quantified using Tecan Infinite M1000 Pro for cell viability determination.
In general terms: In ATP-based viability assays light output follows the ATP content of the culture.

Assay [3] concerns JJN3 plasma cell leukemia cell line. Nature of the assay: JJN-3 assay (Alamar blue). The conditions noted are these: Homo sapiens, 72 h. The method, boiled down:
(§1)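 For both lines, 5000 cells/well were exposed to compound or a 1% DMSO-medium control for 72 h unless otherwise specified. Signal was normalized to the DMSO control.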
On the technique in general: The colour change of resazurin is a common sign of viable cells or microbes.

In assay [4] the test system is PD1-ss+10aa/Gaussia Luciferase. Nature of the assay: Dox induced PD1-ss-Gluc assay. The method, boiled down:
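Stable Flp-In 293 T-REx line expressing doxycycline-inducible Gaussia luciferase fused to the PD1 signal sequence plus 10 amino acids. Cells plated the day before, then exposed to compound dilutions in DMSO/media containing doxycycline at 37 °C, 5% CO2.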

Assay [5] deals with VCAMss+10aa/Gaussia Luciferase. The experiment in a line: VCAM-ss-Gluc assay (constitutively active or Dox induced). Conditions: Flp-In 293 T-REx cells, 24 hours. The method, boiled down: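 Stable cell lines secreting a VCAM signal sequence+10aa/Gaussia luciferase fusion, expressed either constitutively or under T-REx doxycycline control. Cells plated the day before; compound dilutions in DMSO/media (with doxycycline for the induced line) added and incubated at 37° C, 5% CO2.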

In assay [6] the test system is TNFα-FL/Gaussia Luciferase. The experiment in a line: Dox induced TNFα-FL-Gluc assay. The procedure, abridged:
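Stable Flp-In 293 T-REx line expressing full-length TNFα (aa 1-233) fused at its C-terminus to Gaussia luciferase under doxycycline-inducible control. Cells plated the day before, then given compound dilutions in DMSO/media containing doxycycline and incubated at 37 °C, 5% CO2.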

For assay [7], the system named is BT474 breast tumor cell line. Nature of the assay: BT474 assay (Alamar blue). The conditions noted are these: Homo sapiens, BT-474, 72 h. The method, boiled down:
as §1

A further assay relates to HER3ss-Gluc. The experiment in a line: HER3ss assay. The method, boiled down: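 HEK-293T T-REx cells were transiently transfected with HER3 signal sequence (plus four mature-domain residues) fused upstream of mature Gaussia luciferase. Cells were induced with doxycycline (1 μg/ml) and exposed to increasing compound concentrations for 24 h, then secreted luciferase in the conditioned medium was read by luminescence.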

The test system of assay [8] is NCI-H929 multiple myeloma cell line. Nature of the assay: H929 assay (cell viability, Celltiter-Glo). The conditions noted are these: Homo sapiens, read-out: H929 EC50. The method, boiled down:
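Cells plated in RPMI 1640 with 10% FBS and 2 mM glutamine, treated with compound dilutions in DMSO/media. Incubation 48 h at 37° C, 5% CO2. Viability from luciferase luminescence signal.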

[9] abbreviates: Flp-In 293 T-REx cells, 24 hours; read-out: Prl IC50.
Setting [10] is: Flp-In 293 T-REx cells, doxycycline, 24 hours; read-out: PD1ss Gluc IC50.
Setting [11] is: Flp-In 293 T-REx cells, doxycycline, 24 hours; read-out: TNFa FL Gluc IC50.
The mark [12] stands for this setting: HEK-293T T-rex cells, transient transfection, doxycycline, 24 h; read-out: HER3 ss IC50.
Setting [13] is: NCI-H929, 48 hours, cell viability.

One may read the pIC50 as the negative decadic logarithm of the IC50, by convention in mol/L. One may read the pEC50 as −log10 of the EC50, conventionally taken in molar units. Consider `Cc1cccc(Cn2cc(C[C@H]3C(=O)N[C@@H](CC(C)C)C(=O)N(C)[C@@H](C)C(=O)O[C@H](CCC#N)C(=O)N[C@@H](CC(C)C)C(=O)N(C)[C@@H](CC(C)C)C(=O)N[C@@H](CC(C)C)C(=O)N3C)c3ccccc32)n1` [C-33] (HELM PEPTIDE1{L.[meA].[N#CCC[C@@H](O[*:1])C(=O)[*:2]].L.[meL].L.[Cc1cccc(Cn2cc(C[C@@H](C(=O)[*:2])N(C)[*:1])c3ccccc32)n1]}$PEPTIDE1,PEPTIDE1,1:R1-7:R2$$$V2.0), for which the pIC50 in assay [1] (setting [9]) is 5.22; in [4] (setting [10]) it was 6.41; in [5], 6.62; in [6] (setting [11]) it was 5.87; with HER3ss-Gluc (setting [12]), 6.67. In addition, the negative logarithm of the EC50 (pEC50) in assay [2] is 5.05; in assay [3], 5.83; in [7] it was 5.38; in assay [8] (setting [13]) it was 5.37.
Take `COc1cccc(Cn2cc(C[C@H]3C(=O)N[C@@H](CC(C)C)C(=O)N(C)[C@@H](C)C(=O)O[C@H](CCC#N)C(=O)N[C@@H](CC(C)C)C(=O)N(C)[C@@H](CC(C)C)C(=O)N[C@@H](CC(C)C)C(=O)N3C)c3ccccc32)c1` [C-13] (HELM PEPTIDE1{L.[meA].[N#CCC[C@@H](O[*:1])C(=O)[*:2]].L.[meL].L.[COc1cccc(Cn2cc(C[C@@H](C(=O)[*:2])N(C)[*:1])c3ccccc32)c1]}$PEPTIDE1,PEPTIDE1,1:R1-7:R2$$$V2.0): the pIC50 in assay [1] (setting [9]) was 5.72; in assay [4] (setting [10]) it was 7.52; in assay [5] it was 5.99; in assay [6] (setting [11]), 6.93; in the assay on HER3ss-Gluc (setting [12]) it was 7.16. Further, the pEC50 is 4.77 in [2], 6.72 in [3], 5.87 in assay [7] and 6.08 in [8] (setting [13]).
Consider `CC(C)C[C@@H]1NC(=O)[C@H](Cc2cn(Cc3ccc(Br)cc3)c3ccccc23)N(C)C(=O)[C@H](CC(C)C)NC(=O)[C@H](CC(C)C)N(C)C(=O)[C@H](CC(C)C)NC(=O)[C@@H](CCC#N)OC(=O)[C@H](C)N(C)C1=O` [C-14] (HELM PEPTIDE1{L.[meA].[N#CCC[C@@H](O[*:1])C(=O)[*:2]].L.[meL].L.[CN([C@@H](Cc1cn(Cc2ccc(Br)cc2)c2ccccc12)C(=O)[*:2])[*:1]]}$PEPTIDE1,PEPTIDE1,1:R1-7:R2$$$V2.0), for which the pIC50 in assay [1] (setting [9]) is 6.44; in [4] (setting [10]), 7.74; in assay [5], 6.31; in assay [6] (setting [11]), 6.97; with HER3ss-Gluc (setting [12]) it was 7.29. Further, the negative-log EC50 (pEC50) in [2] was 5.10; in assay [3], 6.63; in [7] it was 6.07; in assay [8] (setting [13]), 5.89.
Take `CC(C)C[C@@H]1NC(=O)[C@H](Cc2cn(Cc3ccc(F)c(F)c3)c3ccccc23)N(C)C(=O)[C@H](CC(C)C)NC(=O)[C@H](CC(C)C)N(C)C(=O)[C@H](CC(C)C)NC(=O)[C@@H](CCC#N)OC(=O)[C@H](C)N(C)C1=O` [C-28] (HELM PEPTIDE1{L.[meA].[N#CCC[C@@H](O[*:1])C(=O)[*:2]].L.[meL].L.[CN([C@@H](Cc1cn(Cc2ccc(F)c(F)c2)c2ccccc12)C(=O)[*:2])[*:1]]}$PEPTIDE1,PEPTIDE1,1:R1-7:R2$$$V2.0): the pIC50 is 6.37 in assay [1] (setting [9]); 7.57 in [4] (setting [10]); 7.21 in assay [5]; 6.90 in [6] (setting [11]); 7.22 in the assay with HER3ss-Gluc (setting [12]). Further, the pEC50 is 6.85 in assay [3], 6.03 in assay [7] and 6.21 in assay [8] (setting [13]).
With `CC(C)C[C@@H]1NC(=O)[C@H](Cc2cn(Cc3cncc(F)c3)c3ccccc23)N(C)C(=O)[C@H](CC(C)C)NC(=O)[C@H](CC(C)C)N(C)C(=O)[C@H](CC(C)C)NC(=O)[C@@H](CCC#N)OC(=O)[C@H](C)N(C)C1=O` [C-35] (HELM PEPTIDE1{L.[meA].[N#CCC[C@@H](O[*:1])C(=O)[*:2]].L.[meL].L.[CN([C@@H](Cc1cn(Cc2cncc(F)c2)c2ccccc12)C(=O)[*:2])[*:1]]}$PEPTIDE1,PEPTIDE1,1:R1-7:R2$$$V2.0), the negative-log IC50 (pIC50) in [1] (setting [9]) is 5.90; in assay [4] (setting [10]), 6.97; in assay [5], 6.68; in assay [6] (setting [11]) it was 6.43; in the assay on HER3ss-Gluc (setting [12]), 6.90. The pEC50 in [3] was 6.62; in assay [7], 5.90; in [8] (setting [13]), 5.55.
In the case of `CC(C)C[C@@H]1NC(=O)[C@H](Cc2cn(Cc3ccc(Br)cc3)c3ccccc23)N(C)C(=O)[C@H](CC(C)C)NC(=O)[C@H](CC(C)C)N(C)C(=O)[C@H](CC(F)(F)F)NC(=O)[C@@H](CCC#N)OC(=O)[C@H](C)N(C)C1=O` [C-41] (cyclo(L[NMeA][Butanoyl(2R-oxy,4-CN)][Abu(4,4,4-F3)][NMeL]L[NMeTrp(1-(4-Br-benzyl))])), the negative logarithm of the IC50 (pIC50) in assay [1] (read-out: Prl IC50; Flp-In 293 T-REx cells, 24 hours) was 5.99; in assay [4] (read-out: PD1ss Gluc IC50; Flp-In 293 T-REx cells, doxycycline, 24 hours), 7.72; in assay [5] it was 7.49; in [6] (read-out: TNFa FL Gluc IC50; Flp-In 293 T-REx cells, doxycycline, 24 hours), 7.11; in the assay on HER3ss-Gluc (read-out: HER3 ss IC50; HEK-293T T-rex cells, transient transfection, doxycycline, 24 h) it was 7.64. Moreover, the pEC50 in [3] is 7.14; in assay [7] it was 6.08; in assay [8] (NCI-H929, 48 h), 5.89.
Consider `CC(C)C[C@@H]1NC(=O)[C@H](Cc2cn(Cc3ccc(Br)cc3)c3ccccc23)N(C)C(=O)[C@H](CC(C)C)NC(=O)[C@H](CC(C)C)N(C)C(=O)[C@H](CC2CC2)NC(=O)[C@@H](CCC#N)OC(=O)[C@H](C)N(C)C1=O` [C-38] (cyclo([Ala(cPr)][NMeL]L[NMeTrp(1-(4-Br-benzyl))]L[NMeA][Butanoyl(2R-oxy,4-CN)])), for which the negative-log IC50 (pIC50) in [1] (setting [9]) is 5.21; in assay [4] (setting [10]), 6.98; in assay [5] it was 6.49; in [6] (setting [11]) it was 6.41; with HER3ss-Gluc (setting [12]), 6.50. The pEC50 in [3] was 6.02; in assay [7] it was 5.41; in assay [8] (setting [13]) it was 5.43.
Regarding `CC(C)C[C@@H]1NC(=O)[C@H](Cc2cn(Cc3ccc(F)nc3)c3ccccc23)N(C)C(=O)[C@H](CC(C)C)NC(=O)[C@H](CC(C)C)N(C)C(=O)[C@H](CC(C)C)NC(=O)[C@@H](CCC#N)OC(=O)[C@H](C)N(C)C1=O` [C-36] (HELM PEPTIDE1{L.[meA].[N#CCC[C@@H](O[*:1])C(=O)[*:2]].L.[meL].L.[CN([C@@H](Cc1cn(Cc2ccc(F)nc2)c2ccccc12)C(=O)[*:2])[*:1]]}$PEPTIDE1,PEPTIDE1,1:R1-7:R2$$$V2.0), the pIC50 in assay [1] (setting [9]) is 5.96; in assay [4] (setting [10]) it was 7.03; in assay [5], 6.45; in assay [6] (setting [11]), 6.45; with HER3ss-Gluc (setting [12]) it was 6.46. Also, the negative logarithm of the EC50 (pEC50) is 6.54 in assay [3], 5.81 in [7] and 5.54 in [8] (setting [13]).
`CC(C)C[C@@H]1NC(=O)[C@H](Cc2cn(Cc3ccc(C(F)(F)F)cc3)c3ccccc23)N(C)C(=O)[C@H](CC(C)C)NC(=O)[C@H](CC(C)C)N(C)C(=O)[C@H](CC(C)C)NC(=O)[C@@H](CCC#N)OC(=O)[C@H](C)N(C)C1=O` [C-42] (HELM PEPTIDE1{L.[meA].[N#CCC[C@@H](O[*:1])C(=O)[*:2]].L.[meL].L.[CN([C@@H](Cc1cn(Cc2ccc(C(F)(F)F)cc2)c2ccccc12)C(=O)[*:2])[*:1]]}$PEPTIDE1,PEPTIDE1,1:R1-7:R2$$$V2.0): the negative logarithm of the IC50 (pIC50) in assay [1] (setting [9]) is 5.26; in assay [4] (setting [10]) it was 7.43; in assay [5] it was 6.78; in assay [6] (setting [11]), 6.45. For the same compound, the negative logarithm of the EC50 (pEC50) was 4.70 in [2], 6.05 in assay [3], 5.48 in [7] and 5.40 in assay [8] (setting [13]).
